The values below are quoted from earlier work in patent US10722516B2, “Use of landiolol hydrochloride in the long-term treatment of tachyarrhythmias” (AOP Orphan Pharmaceuticals AG, priority 2013, dated 2020).

The conditions of the series: in vivo; cited from earlier work.

Structures are written as SMILES. Where a name gives a salt, the structure may show the parent alone.

On to `COC(=O)CCc1ccc(OCC(O)CNC(C)C)cc1` (stereo not drawn) [Esmolol, Esmolol hydrochloride], for which the alpha-distribution half-life result is given as “approximately 2 minutes”, the “total body clearance relative to cardiac output” value was roughly 3 times and the “total body clearance relative to hepatic blood flow” value is roughly 14 times.
